Measured values as given in US11999700B1, “[4,4-bis(4-nitrophenyl)-2,5-dioxoimidazolidin-1-yl]acetic acid as an antimicrobial compound” (KING FAISAL UNIVERSITY, priority 2023, dated 2024).

How the values were obtained:
Type in all cases: cell-based
Candida albicans = experiment: Antimicrobial testing by agar dilution, Candida albicans; conditions: Candida albicans fungi, after 10, 20, 40 and 60 minutes at all dilutions 1:100, 1:200, 1:400, 1:800
Procedure: (§1) The antimicrobial properties of the [4,4-bis(4-nitrophenyl)-2,5-dioxoimidazolidin-1-yl]acetic acid were studied by the method of agar dilution. Test solutions of each compound was prepared in concentration of 1% using dimethylformamide as a solvent then they are diluted in physiological solution to obtain the final experimental dilutions 1:100, 1:200, 1:400, 1:800. The effect of these substances are compared with furacillin in a controlable study. The testing microbes used were gram positive bacteria Staphylococcus Aereus, gram negative bacteria Escherichia Coli, Pseudomonas aeruginosa and Candida albicans fungi were taken.
(§2) The experiments used for this survey were meat-pentonlu agar (EPA) for cultivation of bacteria and Saburo environment for fungi. Each experiment used 1 ml of test solution on each plate 500 min. Add 2 drops of emulsified with microbes feel. All experimental samples were taken from the agar after 10, 20, 40, 60 minutes in the environment on the basis of Patrk planted. Bacteria were cultivated at a temperature of 37° C. for 1 day and the mushroom was kept in a thermostat for […] at a temperature of 28° C. in the. Then results were checked.

Escherichia Coli = experiment: Antimicrobial testing by agar dilution, E. Coli; conditions: after 10, 20, 40 and 60 minutes at all dilutions 1:100, 1:200, 1:400, 1:800
Procedure: as §1, §2

Staphylococcus Aereus = experiment: Antimicrobial testing by agar dilution, St. Aereus; conditions: after 10, 20, 40 and 60 minutes at all dilutions 1:100, 1:200, 1:400, 1:800
Procedure: as §1, §2

Pseudomonas aeruginosa = experiment: Antimicrobial testing by agar dilution, Ps. aeruginosa; conditions: after 10, 20, 40 and 60 minutes at all dilutions 1:100, 1:200, 1:400, 1:800
Procedure: as §1, §2

Measured: inhibition activity

O=C(O)CN1C(=O)NC(c2ccc([N+](=O)[O-])cc2)(c2ccc([N+](=O)[O-])cc2)C1=O [[4,4-bis(4-nitrophenyl)-2,5-dioxoimidazolidin-1-yl]acetic acid]
higher inhibition activity: all assays above
